Test results from patent publication US20020137929A1, “1 - (3-heterocyclylphenyl) isothiourea, -isourea, -guanidine and -amidine herbicidal agents” (Intellectual Property Department, BASF Aktiengesellschaft, priority 1998, published 2002).

Columns and labels:
AMBEL (Ragweed, Common) [1] = assay: Preemergence herbicidal evaluation; format: in vivo, Ambrosia artemisifolia; conditions: rated 4-5 weeks after treatment
Procedure, shortened: (§1)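 Visual 0-9 rating vs control (stand, vigor, malformation, size, chlorosis, overall appearance), scored 4-5 wk after spraying. Seeded soil cups were treated preemergence with compound in aqueous acetone, ~0.0156-0.500 kg/ha equivalent.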

[2] = tested on: CHEAL (Lambsquarters, Common); assay: Postemergence herbicidal evaluation; format: in vivo, Chenopodium album; conditions: postemergence
Procedure, shortened: (§2)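 Compound is applied as a foliar spray to seedlings about two weeks old, formulated in equal parts acetone and water with 0.5% TWEEN 20 and delivered at 40 psi to give about 0.0156–0.500 kg per hectare. Injury is rated visually 0–9 after four to five weeks.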

[3] = tested on: SAGPY (Arrowhead (Pygmaea)); assay: Preemergence weed control under flooded paddy conditions; format: in vivo, Sagittaria pygmaea; conditions: rated 3-4 weeks after treatment
Procedure, shortened: (§3)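 Seeds or propagules sown in silt loam kept flooded 1.5-3 cm; compounds in 50/50 acetone/water pipetted into flood water at about 0.0313 to 0.500 kg/ha. Greenhouse; visual 0-9 rating versus untreated control 3-4 weeks after treatment.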

ECHCG (Barnyardgrass) = assay: Postemergence herbicidal evaluation; format: in vivo, Echinochloa crus-galli; conditions: postemergence
Procedure, shortened: as §2

MOOVA (Monochoria) = assay: Preemergence weed control under flooded paddy conditions; format: in vivo, Monochoria vaginalis; conditions: rated 3-4 weeks after treatment
Procedure, shortened: as §3

[4] = tested on: CHEAL (Lambsquarters, Common); assay: Preemergence herbicidal evaluation; format: in vivo, Chenopodium album; conditions: rated 4-5 weeks after treatment
Procedure, shortened: as §1

ORYSAT (Rice, Tebonnet) = assay: Preemergence herbicidal evaluation; format: in vivo, Oryza sativa, (L.) Tebonnet; conditions: rated 4-5 weeks after treatment
Procedure, shortened: as §1

[5] = tested on: GLXMAW (Soybean, Williams); assay: Postemergence herbicidal evaluation; format: in vivo, Glycine max, (L.) Merr. cv Williams; conditions: postemergence
Procedure, shortened: as §2

[6] = tested on: IPOHE (Morningglory, Ivyleaf); assay: Preemergence herbicidal evaluation; format: in vivo, Ipomoea hederacea; conditions: rated 4-5 weeks after treatment
Procedure, shortened: as §1

ABUTH (Velvetleaf) = assay: Preemergence herbicidal evaluation; format: in vivo, Abutilon theophrasti; conditions: rated 4-5 weeks after treatment
Procedure, shortened: as §1

[7] = tested on: IPOHE (Morningglory, Ivyleaf); assay: Postemergence herbicidal evaluation; format: in vivo, Ipomoea hederacea; conditions: postemergence
Procedure, shortened: as §2

AMBEL (Ragweed, Common) [8] = assay: Postemergence herbicidal evaluation; format: in vivo, Ambrosia artemisifolia; conditions: postemergence
Procedure, shortened: as §2

[9] = tested on: TRZAWR (Wheat, Winter, cv Riband); assay: Postemergence herbicidal evaluation; format: in vivo, Triticum aestivum; conditions: postemergence
Procedure, shortened: as §2

CASOB (Sicklepod) [10] = assay: Postemergence herbicidal evaluation; format: in vivo, Cassia obtusifolia; conditions: postemergence
Procedure, shortened: as §2

[11] = tested on: GLXMAW (Soybean, Williams); assay: Preemergence herbicidal evaluation; format: in vivo, Glycine max, (L.) Merr. cv Williams; conditions: rated 4-5 weeks after treatment
Procedure, shortened: as §1

CASOB (Sicklepod) [12] = assay: Preemergence herbicidal evaluation; format: in vivo, Cassia obtusifolia; conditions: rated 4-5 weeks after treatment
Procedure, shortened: as §1

C=CCN1C(=O)C(CC(=O)NO)SC1=Nc1cc(-n2c(=O)cc(C(F)(F)F)n(C)c2=O)c(F)cc1Cl (stereo not shown) [Compound 161, 3-Allyl-2-{{2-chloro-5-[3,6-dihydro-3-methyl-2,6-dioxo-4-(trifluoromethyl)-1(2H)-pyrimidinyl]-4-fluorophenyl}imino}-4-oxo-5-thiazolidineacetohydroxamic acid] was tested, and the “Preemergence herbicidal rating AMBEL” value (AMBEL (Ragweed, Common) [1]; 0.0156 kg/ha) was 0.0, the “Preemergence herbicidal rating AMBEL” value (AMBEL (Ragweed, Common) [1]; 0.0313 kg/ha) was 3.0 and the “Preemergence herbicidal rating AMBEL” value (AMBEL (Ragweed, Common) [1]; 0.0625 kg/ha) was 5.0. For the same molecule, the “Preemergence herbicidal rating AMBEL” value (AMBEL (Ragweed, Common) [1]; 0.1250 kg/ha) was 9.0, the “Preemergence herbicidal rating AMBEL” value (AMBEL (Ragweed, Common) [1]; 0.2500 kg/ha) was 9.0 and the “Preemergence herbicidal rating AMBEL” value (AMBEL (Ragweed, Common) [1]; 0.5000 kg/ha) was 9.0. For the same molecule, the “herbicidal rating CHEAL” value ([2]; rate 0.0156 kg/ha) was 1.0, the “herbicidal rating CHEAL” value ([2]; rate 0.0313 kg/ha) was 5.0 and the “herbicidal rating CHEAL” value ([2]; rate 0.0625 kg/ha) was 7.0. The “herbicidal rating CHEAL” value ([2]; rate 0.1250 kg/ha) was 9.0, the “herbicidal effect rating, SAGPY” value ([3]; 0.0313 kg/ha) was 2.0 and the “herbicidal effect rating, SAGPY” value ([3]; 0.1250 kg/ha) was 6.0. The “herbicidal effect rating, SAGPY” value ([3]; 0.2500 kg/ha) was 9.0, the “herbicidal rating ECHCG” value (ECHCG (Barnyardgrass); rate 0.0156 kg/ha) was 0.0 and the “herbicidal rating ECHCG” value (ECHCG (Barnyardgrass); rate 0.0313 kg/ha) was 0.0. The “herbicidal rating ECHCG” value (ECHCG (Barnyardgrass); rate 0.0625 kg/ha) was 4.0, the “herbicidal rating ECHCG” value (ECHCG (Barnyardgrass); rate 0.1250 kg/ha) was 4.0 and the “herbicidal effect rating, MOOVA” value (MOOVA (Monochoria); 0.0313 kg/ha) was 7.0. The “herbicidal effect rating, MOOVA” value (MOOVA (Monochoria); 0.0625 kg/ha) was 7.0, the “herbicidal effect rating, MOOVA” value (MOOVA (Monochoria); 0.1250 kg/ha) was 7.0 and the “herbicidal effect rating, MOOVA” value (MOOVA (Monochoria); 0.2500 kg/ha) was 9.0. For the same molecule, the “Preemergence herbicidal rating CHEAL” value ([4]; 0.0156 kg/ha) was 6.0, the “Preemergence herbicidal rating CHEAL” value ([4]; 0.0313 kg/ha) was 7.0 and the “Preemergence herbicidal rating CHEAL” value ([4]; 0.0625 kg/ha) was 9.0. For the same molecule, the “Preemergence herbicidal rating CHEAL” value ([4]; 0.1250 kg/ha) was 9.0, the “Preemergence herbicidal rating CHEAL” value ([4]; 0.2500 kg/ha) was 9.0 and the “Preemergence herbicidal rating CHEAL” value ([4]; 0.5000 kg/ha) was 9.0. The “Preemergence herbicidal rating ORYSAT” value (ORYSAT (Rice, Tebonnet); 0.0156 kg/ha) was 0.0, the “Preemergence herbicidal rating ORYSAT” value (ORYSAT (Rice, Tebonnet); 0.0313 kg/ha) was 1.0 and the “Preemergence herbicidal rating ORYSAT” value (ORYSAT (Rice, Tebonnet); 0.0625 kg/ha) was 7.0. The “Preemergence herbicidal rating ORYSAT” value (ORYSAT (Rice, Tebonnet); 0.1250 kg/ha) was 7.0, the “Preemergence herbicidal rating ORYSAT” value (ORYSAT (Rice, Tebonnet); 0.2500 kg/ha) was 9.0 and the “Preemergence herbicidal rating ORYSAT” value (ORYSAT (Rice, Tebonnet); 0.5000 kg/ha) was 9.0. For the same molecule, the “herbicidal rating GLXMAW” value ([5]; rate 0.0156 kg/ha) was 5.0, the “herbicidal rating GLXMAW” value ([5]; rate 0.0313 kg/ha) was 6.5 and the “herbicidal rating GLXMAW” value ([5]; rate 0.0625 kg/ha) was 7.0. For the same molecule, the “herbicidal rating GLXMAW” value ([5]; rate 0.1250 kg/ha) was 8.5, the “Preemergence herbicidal rating IPOHE” value ([6]; 0.0313 kg/ha) was 2.0 and the “Preemergence herbicidal rating IPOHE” value ([6]; 0.0625 kg/ha) was 7.0. The “Preemergence herbicidal rating IPOHE” value ([6]; 0.1250 kg/ha) was 9.0, the “Preemergence herbicidal rating IPOHE” value ([6]; 0.2500 kg/ha) was 9.0 and the “Preemergence herbicidal rating IPOHE” value ([6]; 0.5000 kg/ha) was 9.0. The “Preemergence herbicidal rating ABUTH” value (ABUTH (Velvetleaf); 0.0156 kg/ha) was 0.0, the “Preemergence herbicidal rating ABUTH” value (ABUTH (Velvetleaf); 0.0313 kg/ha) was 1.0 and the “Preemergence herbicidal rating ABUTH” value (ABUTH (Velvetleaf); 0.0625 kg/ha) was 2.0. For the same molecule, the “Preemergence herbicidal rating ABUTH” value (ABUTH (Velvetleaf); 0.1250 kg/ha) was 9.0, the “Preemergence herbicidal rating ABUTH” value (ABUTH (Velvetleaf); 0.2500 kg/ha) was 9.0 and the “Preemergence herbicidal rating ABUTH” value (ABUTH (Velvetleaf); 0.5000 kg/ha) was 9.0. The “herbicidal rating IPOHE” value ([7]; rate 0.0156 kg/ha) was 1.0, the “herbicidal rating IPOHE” value ([7]; rate 0.0313 kg/ha) was 3.0 and the “herbicidal rating IPOHE” value ([7]; rate 0.0625 kg/ha) was 9.0. The “herbicidal rating IPOHE” value ([7]; rate 0.1250 kg/ha) was 9.0, the “herbicidal rating AMBEL” value (AMBEL (Ragweed, Common) [8]; rate 0.0156 kg/ha) was 1.0 and the “herbicidal rating AMBEL” value (AMBEL (Ragweed, Common) [8]; rate 0.0313 kg/ha) was 4.0. For the same molecule, the “herbicidal rating AMBEL” value (AMBEL (Ragweed, Common) [8]; rate 0.0625 kg/ha) was 9.0, the “herbicidal rating AMBEL” value (AMBEL (Ragweed, Common) [8]; rate 0.1250 kg/ha) was 9.0 and the “herbicidal rating TRZAWR” value ([9]; rate 0.0156 kg/ha) was 2.5. For the same molecule, the “herbicidal rating TRZAWR” value ([9]; rate 0.0313 kg/ha) was 3.5, the “herbicidal rating TRZAWR” value ([9]; rate 0.0625 kg/ha) was 4.0 and the “herbicidal rating TRZAWR” value ([9]; rate 0.1250 kg/ha) was 4.5. The “herbicidal rating CASOB” value (CASOB (Sicklepod) [10]; rate 0.0156 kg/ha) was 0.0, the “herbicidal rating CASOB” value (CASOB (Sicklepod) [10]; rate 0.0313 kg/ha) was 1.0 and the “herbicidal rating CASOB” value (CASOB (Sicklepod) [10]; rate 0.0625 kg/ha) was 1.0. For the same molecule, the “herbicidal rating CASOB” value (CASOB (Sicklepod) [10]; rate 0.1250 kg/ha) was 3.0, the “Preemergence herbicidal rating GLXMAW” value ([11]; 0.0156 kg/ha) was 0.0 and the “Preemergence herbicidal rating GLXMAW” value ([11]; 0.0313 kg/ha) was 1.0. The “Preemergence herbicidal rating GLXMAW” value ([11]; 0.0625 kg/ha) was 1.0, the “Preemergence herbicidal rating GLXMAW” value ([11]; 0.1250 kg/ha) was 7.0 and the “Preemergence herbicidal rating GLXMAW” value ([11]; 0.2500 kg/ha) was 9.0. The “Preemergence herbicidal rating GLXMAW” value ([11]; 0.5000 kg/ha) was 9.0, the “Preemergence herbicidal rating CASOB” value (CASOB (Sicklepod) [12]; 0.0156 kg/ha) was 0.0 and the “Preemergence herbicidal rating CASOB” value (CASOB (Sicklepod) [12]; 0.0313 kg/ha) was 0.0. For the same molecule, the “Preemergence herbicidal rating CASOB” value (CASOB (Sicklepod) [12]; 0.0625 kg/ha) was 1.0, the “Preemergence herbicidal rating CASOB” value (CASOB (Sicklepod) [12]; 0.1250 kg/ha) was 9.0 and the “Preemergence herbicidal rating CASOB” value (CASOB (Sicklepod) [12]; 0.2500 kg/ha) was 9.0. For the same molecule, the “Preemergence herbicidal rating CASOB” value (CASOB (Sicklepod) [12]; 0.5000 kg/ha) was 9.0.
